Laboratory results from patent US11472845B2, “Antitumor peptide and use thereof” (TOAGOSEI CO., LTD., priority 2019, dated 2022).
Where two headings read alike, the source gives them in different places. Ends that are not written are not given here.

Test system: human gastric cancer cell lines (FU97)
Type: cell-based
Details: for Cell viability (%) of test cells: human, 48 h
Experimental: The antitumor activity of Sample 1 synthesized in the above Test Example 1 with respect to human-derived cultured tumor cells was evaluated. Currently commercially available human gastric cancer cell lines (FU97), human alveolar basal epithelial adenocarcinoma cell lines (A549), human breast cancer cell lines (MDA-MB-231), and human melanoma cell lines (A375) were prepared as test tumor cells. In addition, normal human mammary epithelial cell culture lines (MCF-12F) were prepared for comparison. A DMEM culture medium including 10 μg/mL of insulin, 50 unit/mL of penicillin, 50 μg/mL of streptomycin, and 10% fetal bovine serum (FBS) (product, commercially available from Wako Pure Chemical Industries, Ltd.) The above five types of cell lines were cultured in respective designated culture solutions. The cell lines were cultured so that the number of cells per well in a 96-hole (well) plate was about 5×10^3. Here, an amount of the culture solution per well was 100 μL. The 96-well plate was then placed in a CO2 incubator. Then, pre-incubation was performed under conditions of 37° C. and 5% CO2 for about 1 day (about 23 hours). Then, regarding the culture solution for the peptide addition area, culture solutions containing Sample 1 for each concentration were prepared so that the concentration of Sample 1 was 6.25 μM, 12.5 μM or 25 μM and supplied to wells (that is, wells after the pre-incubation) in which 90 μL of cells to be evaluated were cultured in each well. On the other hand, regarding the culture solution for the comparative test area, a culture solution to which no Sample 1 was added was prepared, and supplied to wells (that is, wells after the pre-incubation) in which 90 μL of cells to be evaluated were cultured in each well. The 96-well plate was then placed in a CO2 incubator, and incubated under conditions of 37° C. and 5% CO2 for 48 hours. […] Then, the absorbance at a wavelength of 450 nm (value corrected by the absorbance at a wavelength of 620 nm: A450-A620) was measured based on the reduction of the tetrazolium salt in the culture solution. Then, the cell viability was calculated according to a colorimetric method. In the test areas (test areas 1 to 3) in the peptide addition area, the cell viability of each of the above five types of cell lines was calculated as a relative value when a measured value (measurement absorbance) of the comparative test area in the same cell lines was set as 100%. That is, regarding each of the above five types of cell lines, the cell viability (%) was calculated by dividing the measurement absorbance of the test areas (test areas 1 to 3) in the peptide addition area by the measurement absorbance of the comparative test area in the same cell lines and multiplying by 100.

Substance: MACLGFQRHKAQLNLATRTWPCTLLFFLLFIPVFCKKRTLRKTDRKKR-NH2 (cysteines drawn unpaired) [Sample 1]
- Specific cell viability of test tumor cells (FU97, 12.5 μM Sample 1, (cell viability of test tumor cells)/(cell viability of MCF-12F cells)×100): 23.0
- Cell viability (%) of test cells (6.25 μM): 29.4%
- Cell viability (%) of test cells (12.5 μM): 26.3%
- Cell viability (%) of test cells (25 μM): 30%
